The values below come from publication PMC9962305, “A Highly Expressed Antennae Odorant-Binding Protein Involved in Recognition of Herbivore-Induced Plant Volatiles in Dastarcus helophoroides” (International Journal of Molecular Sciences, 2023).

Structures are written as SMILES. “Also recorded” adds a separate entry of the source. Read-outs that look alike come from different tables or passages of the source.

One experiment concerns the target recombinant DhelOBP14 (Dastarcus helophoroides, UniProt A0A1I9HZQ7). Put plainly: Fluorescence competitive binding assay (1-NPN probe). Particulars: DhelOBP14, pH 7.4; for IC50: read-out: IC50, ligand concentration displacing 50% of the fluorescence intensity of the DhelOBPs/1-NPN complex. On the procedure:
(§1) Purified proteins were dissolved in 30 mM Tris-HCl buffer (pH 7.4 and 5.0), and emission fluorescence spectra were recorded on an RF-5301PC fluorescence spectrophotometer (Shimadzu, Kyoto, Japan) at room temperature in a right-angle configuration with a 1-cm light path quartz cuvette. To measure the affinity of the fluorescent probe 1-NPN with the target proteins, a […] solution of protein in 30 mM Tris-HCL (pH 7.4 and 5.0) was titrated with aliquots of 1 mM 1-NPN to final concentrations ranging from 0 to the approaching saturation. The probe 1-NPN was excited at 337 nm, and the emission spectra were recorded between 350 and 500 nm. The binding affinities of other ligands were measured using 1-NPN (2 μM) as the fluorescent probe with a stoichiometry of 1:1 (protein: probe), with the final concentration of each ligand ranging from 0 to 20 μM. All ligands, including 1-NPN were purchased from Sigma-Aldrich (St Louis, MO, USA) and TCI Shanghai (Shanghai, China) and dissolved in chromatogram class methanol (Aladdin, Shanghai, China).
(§2) The dissociation constants (Kd) of DhelOBPs with 1-NPN were calculated from Scatchard plots of the binding data using PRISM 8.0 software (GraphPad, La Jolla, CA, USA). Binding affinities (Ki) of DhelOBPs for each ligand were calculated based on the IC50 value (the initial fluorescence level of the competitor concentration reduced by half) using the equation: Ki=IC50/(1+1-NPN/K1-NPN) , where [1-NPN] is the free concentration of 1-NPN, and K1-NPN is the dissociation constant of the complex OBP/1-NPN. The analysis supposes that there is only one protein binding site, which is 100% active, and that the binding is reversible and at an equilibrium.

The target in a further experiment is recombinant DhelOBP18 (Dastarcus helophoroides, UniProt A0A1I9HZQ8). Described as above. Particulars: DhelOBP18, pH 7.4; for IC50: read-out: IC50, ligand concentration displacing 50% of the fluorescence intensity of the DhelOBPs/1-NPN complex. On the procedure: as §1, §2
A further experiment deals with recombinant DhelOBP20 (Dastarcus helophoroides, UniProt A0A1I9HZP8). The description is as above. Particulars: DhelOBP20, pH 7.4; for IC50: read-out: IC50, ligand concentration displacing 50% of the fluorescence intensity of the DhelOBPs/1-NPN complex. As to the method:
as §1, §2

For another experiment, the target named is recombinant DhelOBP4 (Dastarcus helophoroides, UniProt A0A1I9HZP6). The experiment is described as above. Particulars: for IC50: read-out: IC50, ligand concentration displacing 50% of the fluorescence intensity of the DhelOBPs/1-NPN complex; for Ki: calculated from IC50, read-out: Ki, dissociation constant. As to the method: as §1, §2
Another experiment deals with recombinant DhelOBP5 (Dastarcus helophoroides, UniProt A0A1I9HZP1). Described as above. Particulars: DhelOBP5, pH 7.4; for IC50: read-out: IC50, ligand concentration displacing 50% of the fluorescence intensity of the DhelOBPs/1-NPN complex. As to the method:
as §1, §2

For the next experiment, the system named is D. helophoroides adults. Put plainly: Y-tube olfactometer bioassay. It counts as in vivo, Dastarcus helophoroides. Particulars: female and male adults, 20 μL of chemical diluted 1000 times vs liquid paraffin, chi-square test. As to the method:
(§3) Y-tube olfactometer experiments were conducted to evaluate the behavioral response to HIPVs with the best binding affinities in darkness at approximately 25 ± 1 °C. The central tube was 15 cm long, and the two branching arms, each linked to one vial, were 12 cm long with a 75° angle between them. Twenty microliters of each chemical that had been diluted 1000 times by volume were added to a 1 × 1 cm filter paper in one of the vials, and 20 μL of liquid paraffin were dropped on the same size filter paper in the second vial as the blank control. An effective choice was recorded when adults crawled at least 5 cm into the arm within 1 min and stayed 30 s at least. After every five individuals, the two arms were exchanged to avoid position effects. After testing 10 individuals, the Y-tube olfactometer was cleaned with absolute ethanol and oven-dried at 150 °C for 2 h. Fifty adult D. helophoroides were analyzed in each treated group. The results were analyzed using the chi-square test.

The subject of experiment [1] is D. helophoroides adults injected with dsGFP or dsDhelOBP4. Put plainly: RNAi-mediated Y-tube olfactometer bioassay. It counts as in vivo, Dastarcus helophoroides. On the procedure: as §3, with “test. 50 male and 50 female adults of D. helophoroides were chosen on day 1–4 after eclosion. The two treated groups were: dsGFP-injected and dsRNA-injected. dsGFP (250 ng) or dsRNA (250 ng) was respectively injected into the thorax internode of the adults with a microinjector (World Precision Instruments Inc., Sarasota, FL, USA) under a microscope. The RNAi efficiency was detected using a qRT-PCR for seven consecutive days. Following behavioral response was evaluated using the Y-tube olfactometer.” for “test.”

For a further experiment, the target named is recombinant DhelOBP6 (Dastarcus helophoroides, UniProt A0A1I9HZP3). Put plainly: Fluorescence competitive binding assay (1-NPN probe). Particulars: DhelOBP6, pH 7.4; Scatchard plot; read-out: dissociation constant (Kd) bound to 1-NPN. As to the method: as §1, §2
Setting [2] is: female adults after injection of dsDhelOBP4.
[3] abbreviates: female and male adults after injection of dsGFP.
Where [4] appears, read: male adults after injection of dsDhelOBP4.
[5] abbreviates: Scatchard plot, read-out: dissociation constant (Kd) bound to 1-NPN.

Sequence of recombinant DhelOBP5 (A0A1I9HZP1 entry or part of it): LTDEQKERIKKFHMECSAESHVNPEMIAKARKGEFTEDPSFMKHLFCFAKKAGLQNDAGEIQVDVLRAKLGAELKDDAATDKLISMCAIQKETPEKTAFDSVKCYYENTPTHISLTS
Sequence of recombinant DhelOBP4 (A0A1I9HZP6 entry or part of it): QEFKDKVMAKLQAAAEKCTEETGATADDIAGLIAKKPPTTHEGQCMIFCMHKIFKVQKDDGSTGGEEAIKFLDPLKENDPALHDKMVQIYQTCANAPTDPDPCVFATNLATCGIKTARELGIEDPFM
Sequence of recombinant DhelOBP18 (A0A1I9HZQ8 entry or part of it): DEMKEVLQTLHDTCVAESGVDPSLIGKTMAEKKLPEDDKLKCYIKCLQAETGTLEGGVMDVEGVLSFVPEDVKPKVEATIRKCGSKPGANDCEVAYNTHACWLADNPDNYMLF
Sequence of recombinant DhelOBP20 (A0A1I9HZP8 entry or part of it): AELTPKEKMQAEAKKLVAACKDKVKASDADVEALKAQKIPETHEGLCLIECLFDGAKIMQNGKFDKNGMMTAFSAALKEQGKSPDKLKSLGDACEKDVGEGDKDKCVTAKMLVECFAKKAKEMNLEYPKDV
Sequence of recombinant DhelOBP14 (A0A1I9HZQ7 entry or part of it): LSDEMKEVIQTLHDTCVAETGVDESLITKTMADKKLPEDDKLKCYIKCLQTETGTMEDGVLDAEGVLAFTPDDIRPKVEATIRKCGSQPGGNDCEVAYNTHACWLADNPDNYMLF
Sequence of recombinant DhelOBP6 (A0A1I9HZP3 entry or part of it): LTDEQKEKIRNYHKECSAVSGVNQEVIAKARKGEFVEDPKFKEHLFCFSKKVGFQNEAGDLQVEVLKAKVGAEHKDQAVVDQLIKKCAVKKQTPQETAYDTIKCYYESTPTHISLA

On to `Cc1ccc(C(C)C)cc1` [p-Cymene], for which the IC50 on recombinant DhelOBP14 was > 50 µM; on recombinant DhelOBP18, > 50 µM; at recombinant DhelOBP20, > 50 µM; on recombinant DhelOBP4 (DhelOBP4, pH 5.0), > 50 µM; at recombinant DhelOBP4 (DhelOBP4, pH 7.4), 13 ± 0.9 µM; at recombinant DhelOBP5, > 50 µM. For the same molecule, at recombinant DhelOBP4 (DhelOBP4, pH 7.4), the inhibition constant Ki (in general, the dissociation constant of the complex between target and ligand, obtained from inhibition or displacement) was 12 ± 0.9 µM. For the same molecule, the “Behavioral response of D. helophoroides” value with D. helophoroides adults is “significantly attracted; also recorded: attractive effects”. Further, the figures for the “Behavioral response of D. helophoroides post-RNAi treatment” value in experiment [1] (setting [2]), in experiment [1] (setting [3]) and in experiment [1] (setting [4]) were “significantly avoidant effects; also recorded: significant repellent response”, “identically attractive effects” and “no behavioral effects; also recorded: did not elicit a behavioral response”, respectively.
As for `CC1=CCC(=C(C)C)CC1` [Terpinolene], the IC50 is > 50 µM on recombinant DhelOBP14; > 50 µM at recombinant DhelOBP18; > 50 µM on recombinant DhelOBP20; > 50 µM at recombinant DhelOBP4 (DhelOBP4, pH 5.0); 15.7 ± 1.8 µM on recombinant DhelOBP4 (DhelOBP4, pH 7.4); > 50 µM on recombinant DhelOBP5. Moreover, the Ki at recombinant DhelOBP4 (DhelOBP4, pH 7.4) is 14.5 ± 1.7 µM.
For the molecule `CC12CCC(CC1=O)C2(C)C` (stereo not shown) [Camphor], the IC50 on recombinant DhelOBP14 was > 50 µM; at recombinant DhelOBP18 it was > 50 µM; at recombinant DhelOBP20, > 50 µM; at recombinant DhelOBP4 (DhelOBP4, pH 5.0), > 50 µM; at recombinant DhelOBP4 (DhelOBP4, pH 7.4), 18 ± 2.4 µM; at recombinant DhelOBP5, > 50 µM. For the same molecule, the Ki at recombinant DhelOBP4 (DhelOBP4, pH 7.4) is 16.6 ± 2.2 µM.
On to `CC12CCC(C1)C(C)(C)C2=O` (stereo not shown) [Fenchone], for which the IC50 was > 50 µM on recombinant DhelOBP14; > 50 µM at recombinant DhelOBP18; > 50 µM on recombinant DhelOBP20; > 20 µM at recombinant DhelOBP4 (DhelOBP4, pH 5.0); > 20 µM at recombinant DhelOBP4 (DhelOBP4, pH 7.4); > 50 µM on recombinant DhelOBP5.
As for `CC1=CCC(C(C)C)=CC1` [γ-Terpinene], the IC50 on recombinant DhelOBP14 is > 50 µM; at recombinant DhelOBP18, > 50 µM; at recombinant DhelOBP20 it was > 50 µM; at recombinant DhelOBP4 (DhelOBP4, pH 5.0), > 50 µM; at recombinant DhelOBP4 (DhelOBP4, pH 7.4), 11 ± 0.3 µM; on recombinant DhelOBP5, > 50 µM. Moreover, the Ki at recombinant DhelOBP4 (DhelOBP4, pH 7.4) is 10.1 ± 0.3 µM. Moreover, the “Behavioral response of D. helophoroides” value in the experiment with D. helophoroides adults is given as “attractive effects”; in the experiment with D. helophoroides adults (listed as γ-terpinene) it was “significantly attracted”. Besides, the “Behavioral response of D. helophoroides post-RNAi treatment” value in experiment [1] (setting [2]) is “significantly avoidant effects; also recorded: significant repellent response”; in experiment [1] (setting [3]) it was “identically attractive effects”; in experiment [1] (setting [4]) it was “no behavioral effects; also recorded: did not elicit a behavioral response”.
On to `CC1=CC[C@@H](C(C)(C)O)CC1` [α-Terpineol], for which the IC50 was > 50 µM on recombinant DhelOBP14; > 50 µM at recombinant DhelOBP18; > 50 µM at recombinant DhelOBP20; > 50 µM at recombinant DhelOBP4 (DhelOBP4, pH 5.0); 10.4 ± 0.1 µM on recombinant DhelOBP4 (DhelOBP4, pH 7.4); > 50 µM at recombinant DhelOBP5. The Ki on recombinant DhelOBP4 (DhelOBP4, pH 7.4) is 9.6 ± 0.1 µM. In addition, the “Behavioral response of D. helophoroides” value is listed as “no behavioral effects” with D. helophoroides adults and “did not elicit a behavioral response” in the experiment on D. helophoroides adults (listed as α-terpineol).
Turning to `CC1=CC(=O)[C@H]2C[C@@H]1C2(C)C` [(-)-Verbenone], the IC50 on recombinant DhelOBP14 is > 50 µM; on recombinant DhelOBP18, > 50 µM; on recombinant DhelOBP20, > 50 µM; at recombinant DhelOBP4 (DhelOBP4, pH 5.0) it was > 50 µM; on recombinant DhelOBP4 (DhelOBP4, pH 7.4), > 20 µM; on recombinant DhelOBP5, > 50 µM.
`CC1=CCC(O)(C(C)C)CC1` (stereo not shown) [Terpinen-4-ol]: the IC50 was > 50 µM at recombinant DhelOBP14; > 50 µM on recombinant DhelOBP18; > 50 µM on recombinant DhelOBP20; > 50 µM on recombinant DhelOBP4 (DhelOBP4, pH 5.0); > 20 µM at recombinant DhelOBP4 (DhelOBP4, pH 7.4); > 50 µM at recombinant DhelOBP5.
Consider `c1ccc(Nc2cccc3ccccc23)cc1` [1-NPN, N-phenyl-1-naphthylamine, reference compound], for which the equilibrium dissociation constant (Kd) – broadly, the equilibrium constant for the complex coming apart – was found to be 17.4 µM at recombinant DhelOBP14 (setting [5]); 1.23 µM at recombinant DhelOBP18 (setting [5]); 5.13 µM on recombinant DhelOBP20 (setting [5]); 22.4 µM on recombinant DhelOBP4 (DhelOBP4, pH 7.4, Scatchard plot, read-out: dissociation constant (Kd) bound to 1-NPN); 41 µM at recombinant DhelOBP5 (setting [5]); 120 µM at recombinant DhelOBP6.
